These results are taken from paper PMC6839509, “Fluorescent probes towards selective cathepsin B detection and visualization in cancer cells and patient samples” (Chemical Science, 2019).

Several values for one entry are separate records, joined by “and”; a condition that tells them apart may be missing. Identical values can stand only once. Square brackets hold non-standard residues; d marks the D form. * marks the point of attachment. Phe(4-Cl) = N[C@@H](Cc1ccc(Cl)cc1)C(=O)O; ACC = NC(=O)Cc1cc(=O)oc2cc(N*)ccc12; hTyr = N[C@@H](CCc1ccc(O)cc1)C(=O)O; hPhe = N[C@@H](CCc1ccccc1)C(=O)O; Cha = N[C@@H](CC1CCCCC1)C(=O)O; AMC = Cc1cc(=O)oc2cc(N*)ccc12; hLeu = CC(C)CC[C@H](N)C(=O)O; hSer = N[C@@H](CCO)C(=O)O; Nle = CCCC[C@H](N)C(=O)O; Nva = CCC[C@H](N)C(=O)O; Cbz = O=C(OCc1ccccc1)*; OBn = c1ccc(CO*)cc1; Bn = c1ccc(C*)cc1

Common to all, as to assay: Substrate hydrolysis kinetics (kcat, KM, kcat/KM) of ACC-labeled substrates
Format in all cases: biochemical

The target of assay [1] is T1, human recombinant cathepsin V (Homo sapiens, UniProt O60911).
T1 construct: with a 100 nM final concentration of each active cathepsin for 30 min; made in house
The conditions noted are these: pH 5.5, 37 °C, S.D. below 15%; for kcat/KM Cat V: cathepsin V 200 nM, Michaelis–Menten, average of at least triplicate; for kcat Cat V / Km: four independent experiments; for Km: read-out: KM Cat V. Here is the method: (§1) All kinetic experiments were performed using a CLARIOStar (BMG LABTECH) plate reader operating in fluorescence kinetic mode using 96-well plates (Corning®, Costar®). ACC-labeled fluorescent substrates were screened at 355 nm (excitation) and 460 nm (emission) wavelengths (gain 650). The cathepsin assay buffer was composed of 100 mM sodium acetate, 100 mM sodium chloride, 10 mM DTT, 1 mM EDTA, pH 5.5. All kinetic studies were performed at 37 °C.
(§2) The kinetic parameters for all ACC-labeled substrates were determined using Michaelis–Menten kinetic according to the protocol described by Poreba et al.[41] […] All experiments were performed at least in triplicate and the results are presented as average values (S.D. for all tested substrates was below 15%).

The target in assay [2] is T2, human recombinant cathepsin B (Homo sapiens, UniProt P07858).
T2 construct: made in house
The conditions noted are these: for kcat/KM Cat B: cathepsin B 0.3–0.5 nM, 100 mM sodium acetate, 100 mM NaCl, 10 mM DTT, 1 mM EDTA, Michaelis–Menten, average of at least triplicate; for kcat/KM Cat B / kcat Cat B / Km: pH 5.5, 37 °C, S.D. below 15%; for kcat Cat B / Km: four independent experiments; for Km: read-out: KM Cat B. Here is the method: as §1, §2

The target of assay [3] is T3, human recombinant cathepsin L (Homo sapiens, UniProt P07711).
T3 construct: with a 100 nM final concentration of each active cathepsin for 30 min; made in house
Conditions: pH 5.5, 37 °C, S.D. below 15%; for kcat/KM Cat L: cathepsin L 250 nM, Michaelis–Menten, average of at least triplicate; for kcat Cat L / Km: four independent experiments; for Km: read-out: KM Cat L. The protocol:
as §1, §2

Assay [4] addresses T4, human recombinant cathepsin S (Homo sapiens, UniProt P25774).
T4 construct: with a 100 nM final concentration of each active cathepsin for 30 min; made in house
Conditions: pH 5.5, 37 °C, S.D. below 15%; for kcat/KM Cat S: cathepsin S 150 nM, Michaelis–Menten, average of at least triplicate; for kcat Cat S / Km: four independent experiments; for Km: read-out: KM Cat S. The protocol: as §1, §2

Assay [5] has as its target T5, human recombinant cathepsin K (Homo sapiens, UniProt P43235).
T5 construct: with a 100 nM final concentration of each active cathepsin for 30 min; made in house
T5 sequence (P43235 115-329): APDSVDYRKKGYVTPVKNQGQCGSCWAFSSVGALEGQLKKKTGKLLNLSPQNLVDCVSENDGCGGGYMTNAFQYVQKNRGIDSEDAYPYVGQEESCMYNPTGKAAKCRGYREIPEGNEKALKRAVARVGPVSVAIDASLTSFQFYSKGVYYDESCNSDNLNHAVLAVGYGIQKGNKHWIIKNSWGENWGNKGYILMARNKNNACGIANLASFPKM
The conditions noted are these: pH 5.5, 37 °C, S.D. below 15%; for kcat/KM Cat K: cathepsin K 320 nM, Michaelis–Menten, average of at least triplicate; for kcat Cat K / Km: four independent experiments; for Km: read-out: KM Cat K. Here is the method:
as §1, §2

T3 sequence (P07711 114-333): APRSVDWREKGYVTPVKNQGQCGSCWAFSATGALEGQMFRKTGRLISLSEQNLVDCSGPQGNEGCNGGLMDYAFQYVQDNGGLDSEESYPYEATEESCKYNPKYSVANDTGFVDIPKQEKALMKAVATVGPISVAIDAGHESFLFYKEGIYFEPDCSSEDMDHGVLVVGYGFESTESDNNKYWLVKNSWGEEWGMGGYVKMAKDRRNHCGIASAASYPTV
T4 sequence (P25774 115-331): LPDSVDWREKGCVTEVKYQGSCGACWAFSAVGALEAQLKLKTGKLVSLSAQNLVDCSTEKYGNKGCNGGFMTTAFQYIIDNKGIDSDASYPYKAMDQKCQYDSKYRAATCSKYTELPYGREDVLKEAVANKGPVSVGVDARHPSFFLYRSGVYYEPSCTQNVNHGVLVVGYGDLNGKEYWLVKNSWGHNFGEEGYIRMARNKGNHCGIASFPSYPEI
T1 sequence (O60911 114-334): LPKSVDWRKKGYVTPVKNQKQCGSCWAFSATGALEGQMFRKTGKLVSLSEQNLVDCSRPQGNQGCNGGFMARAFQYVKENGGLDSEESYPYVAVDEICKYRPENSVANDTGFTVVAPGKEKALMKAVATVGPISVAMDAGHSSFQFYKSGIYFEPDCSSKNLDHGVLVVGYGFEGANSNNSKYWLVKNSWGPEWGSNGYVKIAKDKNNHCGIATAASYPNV

As to “Ac-[Phe(4-Cl)]L[hSer](Bn)R-{ACC} (SMILES CC(=O)N[C@@H](Cc1ccc(Cl)cc1)C(=O)N[C@@H](CC(C)C)C(=O)N[C@@H](CCOCc1ccccc1)C(=O)N[C@@H](CCCNC(=N)N)C(=O)Nc1ccc2c(CC(N)=O)cc(=O)oc2c1) [ACC-labeled tetrapeptide substrate]”, in assay [1], the “kcat/KM Cat V” value was found to be 570 M⁻¹ s⁻¹. The “kcat/KM Cat B” value in assay [2] is listed as 3,780,000 M^-1s^-1. Besides, the “kcat/KM Cat L” value in assay [3] was 1,540 M^-1s^-1. Besides, the “kcat/KM Cat S” value in assay [4] is 50 M⁻¹ s⁻¹. Moreover, the “kcat/KM Cat K” value in assay [5] was 12 M⁻¹ s⁻¹.
For the substance “Ac-[hLeu][Nle][hSer](Bn)R-{ACC} (SMILES CCCC[C@H](NC(=O)[C@H](CCC(C)C)NC(C)=O)C(=O)N[C@@H](CCOCc1ccccc1)C(=O)N[C@@H](CCCNC(=N)N)C(=O)Nc1ccc2c(CC(N)=O)cc(=O)oc2c1) [ACC-labeled tetrapeptide substrate]”, in assay [4], the “kcat/KM Cat S” value was 65 M⁻¹ s⁻¹ and 39 M⁻¹ s⁻¹. Also, in assay [5], the “kcat/KM Cat K” value was 16 M⁻¹ s⁻¹ and 19 M⁻¹ s⁻¹.
Consider “Ac-[hPhe]LE(OBn)R-{ACC} (SMILES CC(=O)N[C@@H](CCc1ccccc1)C(=O)N[C@@H](CC(C)C)C(=O)N[C@@H](CCC(=O)OCc1ccccc1)C(=O)N[C@@H](CCCNC(=N)N)C(=O)Nc1ccc2c(CC(N)=O)cc(=O)oc2c1) [ACC-labeled tetrapeptide substrate]”, for which, in assay [1], the “kcat/KM Cat V” value stood at 829 M⁻¹ s⁻¹. Besides, the “kcat/KM Cat B” value in assay [2] is recorded as 2,100,000 M^-1s^-1. Besides, the “kcat/KM Cat L” value in assay [3] amounted to 726 M⁻¹ s⁻¹. In assay [4], the “kcat/KM Cat S” value was found to be 37 M⁻¹ s⁻¹. For the same substance, the “kcat/KM Cat K” value in assay [5] worked out at 12 M⁻¹ s⁻¹.
For the substance “Ac-[hLeu][Nle]E(OBn)R-{ACC} (SMILES CCCC[C@H](NC(=O)[C@H](CCC(C)C)NC(C)=O)C(=O)N[C@@H](CCC(=O)OCc1ccccc1)C(=O)N[C@@H](CCCNC(=N)N)C(=O)Nc1ccc2c(CC(N)=O)cc(=O)oc2c1) [ACC-labeled tetrapeptide substrate]”, in assay [1], the “kcat/KM Cat V” value is listed as 1,180 M^-1s^-1. For the same substance, the “kcat/KM Cat B” value in assay [2] was 3,450,000 M^-1s^-1. In addition, the “kcat/KM Cat L” value in assay [3] is given as 1,090 M^-1s^-1. In addition, the “kcat/KM Cat S” value in assay [4] turned out to be 96 M⁻¹ s⁻¹. In assay [5], the “kcat/KM Cat K” value amounted to 17 M⁻¹ s⁻¹.
The Km is the concentration of substrate that gives half-maximal velocity. Consider “Ac-[Cha]LE(OBn)R-{ACC} (SMILES CC(=O)N[C@@H](CC1CCCCC1)C(=O)N[C@@H](CC(C)C)C(=O)N[C@@H](CCC(=O)OCc1ccccc1)C(=O)N[C@@H](CCCNC(=N)N)C(=O)Nc1ccc2c(CC(N)=O)cc(=O)oc2c1)”, for which, in assay [1], the “kcat/KM Cat V” value worked out at 949 M⁻¹ s⁻¹, the “kcat Cat V” value amounted to 0.034 s⁻¹ and the Km was determined as 35.1 µM. Besides, in assay [2], the “kcat/KM Cat B” value is listed as 3,100,000 M^-1s^-1, the “kcat Cat B” value was 344 s⁻¹ and the Km was 115 µM. In assay [2] (from kcat/KM), the “selectivity for cathepsin B in comparison with cathepsin S” value was ~60 000 fold. In assay [3], the “kcat/KM Cat L” value came to 744 M⁻¹ s⁻¹, the “kcat Cat L” value was 0.062 s⁻¹ and the Km turned out to be 83.5 µM. For the same substance, in assay [4], the “kcat/KM Cat S” value was determined as 40 M⁻¹ s⁻¹, the “kcat Cat S” value was under 0.020 s⁻¹ and the Michaelis-Menten constant (Km) is over 500 µM. Moreover, in assay [5], the “kcat/KM Cat K” value came to 14 M⁻¹ s⁻¹, the “kcat Cat K” value is under 0.007 s⁻¹ and the Km was over 500 µM.
Turning to “Ac-[Nva][Cha]E(OBn)R-{ACC} (SMILES CCC[C@H](NC(C)=O)C(=O)N[C@@H](CC1CCCCC1)C(=O)N[C@@H](CCC(=O)OCc1ccccc1)C(=O)N[C@@H](CCCNC(=N)N)C(=O)Nc1ccc2c(CC(N)=O)cc(=O)oc2c1) [ACC-labeled tetrapeptide substrate]”, the “kcat/KM Cat V” value in assay [1] is 1,420 M^-1s^-1. The “kcat/KM Cat B” value in assay [2] is 4,090,000 M^-1s^-1. For the same substance, the “kcat/KM Cat L” value in assay [3] is 1,140 M^-1s^-1. Further, the “kcat/KM Cat S” value in assay [4] was 37 M⁻¹ s⁻¹. Further, in assay [5], the “kcat/KM Cat K” value is 30 M⁻¹ s⁻¹.
Turning to “Ac-[Cha]L[hSer](Bn)R-{ACC} (SMILES CC(=O)N[C@@H](CC1CCCCC1)C(=O)N[C@@H](CC(C)C)C(=O)N[C@@H](CCOCc1ccccc1)C(=O)N[C@@H](CCCNC(=N)N)C(=O)Nc1ccc2c(CC(N)=O)cc(=O)oc2c1) [ACC-labeled tetrapeptide substrate]”, in assay [1], the “kcat/KM Cat V” value came out at 518 M⁻¹ s⁻¹, the “kcat Cat V” value worked out at 0.055 s⁻¹ and the Km was determined as 109 µM. Besides, in assay [2], the “kcat/KM Cat B” value is 4,300,000 M^-1s^-1, the “kcat Cat B” value stood at 390 s⁻¹ and the Km is 90.9 µM. Moreover, in assay [3], the “kcat/KM Cat L” value is 1,040 M^-1s^-1, the “kcat Cat L” value turned out to be 0.109 s⁻¹ and the Km was 105 µM. Further, in assay [4], the “kcat/KM Cat S” value stood at 44 M⁻¹ s⁻¹, the “kcat Cat S” value is under 0.022 s⁻¹ and the Michaelis constant (Km) was over 500 µM. Besides, in assay [5], the “kcat/KM Cat K” value came to 14 M⁻¹ s⁻¹, the “kcat Cat K” value is under 0.007 s⁻¹ and the Km is over 500 µM.
With “Ac-hLeu-Nle-Glu(Chx)-Arg-ACC [ACC-labeled tetrapeptide substrate]”, the “kcat/KM Cat V” value in assay [1] is listed as 1,310 M^-1s^-1. Also, the “kcat/KM Cat B” value in assay [2] is 2,600,000 M^-1s^-1. The “kcat/KM Cat L” value in assay [3] was found to be 769 M⁻¹ s⁻¹. In addition, the “kcat/KM Cat S” value in assay [4] was determined as 25 M⁻¹ s⁻¹. In assay [5], the “kcat/KM Cat K” value amounted to 11 M⁻¹ s⁻¹.
On to “Ac-[hTyr]LE(OBn)R-{ACC} (SMILES CC(=O)N[C@@H](CCc1ccc(O)cc1)C(=O)N[C@@H](CC(C)C)C(=O)N[C@@H](CCC(=O)OCc1ccccc1)C(=O)N[C@@H](CCCNC(=N)N)C(=O)Nc1ccc2c(CC(N)=O)cc(=O)oc2c1) [ACC-labeled tetrapeptide substrate]”, for which, in assay [1], the “kcat/KM Cat V” value came to 692 M⁻¹ s⁻¹. Further, the “kcat/KM Cat B” value in assay [2] is 2,760,000 M^-1s^-1. Further, in assay [3], the “kcat/KM Cat L” value is recorded as 1,170 M^-1s^-1. Also, the “kcat/KM Cat S” value in assay [4] came to 41 M⁻¹ s⁻¹. Also, the “kcat/KM Cat K” value in assay [5] amounted to 14 M⁻¹ s⁻¹.
With Cbz-Arg-Arg-{AMC} [reference compound], the “selectivity for cathepsin B over cathepsin L” value in assay [2] (from kcat/KM) turned out to be 17 fold.
